{"source": "patent USRE38117E1", "about": "“Trioxane dimer compound having antiproliferative and antitumor activities” (Hauser, Inc., priority 1995, dated 2003)", "key": {"[1]": {"tested_on": "murine keratinocyte cell line PE", "test": "Growth inhibition of PE cells (MTT assay)", "assay_type": "cell-based", "details": "murine keratinocytes, FIGS. 1-9", "experimental": "To determine the inhibitory effect of the trioxane dimers of the present invention on cell proliferation, screening assays were performed on a murine keratinocyte cell line PE. […] PE cell culture medium consisted of Eagle's minimal essential medium without calcium chloride (Whittaker Bioproducts, Walkersville, Ma.) supplemented with 8% chelexed fetal calf serum and 1% antibiotic-antimycotic (Gibco BRL) and the addition of CaCl2 to 0.05 mM Ca^++. […] (St. Louis, Mo.), and TPA was supplied by L. C. Services (Woburn, Ma.). L-[^14C]ornithine ([…]) was from Amersham/Searle Corp. (Arlington Heights, Ill.). Chemical solvents used in all assays of biological activity were of the highest grade commercially available. Growth Inhibition. […] A mitochondrial dehydrogenase reduces MTT to a blue formazan product with an absorbance maximum of 505 nm in DMSO; the number of viable cells can thus be determined spectrophotometrically. PE cells were seeded at a density of 5,000 cells/well in 50 μL of medium into 96-well microtiter plates. […] The plates were fed once at 48 h, with the readdition of the vitamin D3 analogs at this time. […] After 4 h, the MTT was removed and DMSO added to dissolve the blue formazan dye. Using a microtiter plate reader, the […] was then determined and cell number calculated from blank-subtracted absorbance values."}, "[2]": {"tested_on": "murine keratinocyte cell line PE", "test": "Viability of PE cells by trypan blue exclusion", "assay_type": "cell-based", "details": "96 h"}, "P. berghei": {"tested_on": "P. berghei", "details": "Klayman 1985; cited from earlier work"}}, "data": [{"compound": "4β-Hydroxymethyl Trioxane Terephthalate Dimer [Compound 24]", "values": [{"measurement": "antiproliferative activity", "setting": "[1]", "result": "significant antiproliferative activity"}]}, {"compound": "C=C1/C(=C\\C=C2/CCC[C@]3(C)[C@@H]([C@H](C)CCCC(C)(C)O)CC[C@@H]23)C[C@@H](O)C[C@@H]1O", "note": "[calcitriol, 1α, 25-dihydroxyvitamin D3]", "values": [{"measurement": "viability of the cells", "setting": "[2]", "result": "identical to control cells"}]}, {"compound": "COC1OC2(C)CCC3CCCC(CCOP(=O)(OCCC4CCCC5CCC6(C)OOC45C(OC)O6)Oc4ccccc4)C31OO2", "note": "(stereo not drawn) [Compound 20, Bis-trioxane phosphate ester]", "values": [{"measurement": "antiproliferative activity", "setting": "[1]", "result": "Neither phosphate dimers 20, and 21 nor phosphonate dimer 22 has significant antiproliferative activity"}]}, {"compound": "COC1OC2(C)CCC3CCCC(CCOC(=O)CCCC(=O)OCCC4CCCC5CCC6(C)OOC45C(OC)O6)C31OO2", "note": "(stereo not drawn) [Compound 15, Trioxane Bis-ester Dimer]", "values": [{"measurement": "antiproliferative activity", "setting": "[1]", "result": "the most active"}]}, {"compound": "CC1=CO[C@@H]2O[C@]3(C)CC[C@H]4[C@H](C)CC[C@@H]1[C@@]24OO3", "note": "[III]", "values": [{"measurement": "activity against P. berghei-infected mice", "setting": "P. berghei", "result": "inactive"}]}, {"compound": "COC1OC2(C)CCC3CCCC(CCOP(=O)(OC)OCCC4CCCC5CCC6(C)OOC45C(OC)O6)C31OO2", "note": "(stereo not drawn) [Compound 21, Bis-trioxane phosphate ester]", "values": [{"measurement": "antiproliferative activity", "setting": "[1]", "result": "Neither phosphate dimers 20, and 21 nor phosphonate dimer 22 has significant antiproliferative activity"}]}]}
